Data set [1] has as its target Tyrosine-protein kinase receptor UFO (Homo sapiens) (UniProt P30530). The data set is described as follows: Selectivity interaction (Kinase panel (Z-LYTE Assay)) EUB0001632a AXL. The following applies: at 10 µM.
Data set [2] deals with Serine/threonine-protein kinase RIO2 (Homo sapiens) (UniProt Q9BVS4). Kind of data set: Selectivity interaction (Ambit KINOMEscan and KiNATiv profiling in Jurkat cells) EUB0000090b RIOK2. Conditions: at 1 µM. It is filed as cell-based.
The target of data set [3] is Fibroblast growth factor receptor 2 (Homo sapiens) (UniProt P21802). Kind of data set: Selectivity interaction (SelectScreen profiling (Invitrogen)) EUB0000607a FGFR2. The following applies: at 2 µM.
Sequence of Fibroblast growth factor receptor 2 (Homo sapiens) (P21802 22-821 limits assumed): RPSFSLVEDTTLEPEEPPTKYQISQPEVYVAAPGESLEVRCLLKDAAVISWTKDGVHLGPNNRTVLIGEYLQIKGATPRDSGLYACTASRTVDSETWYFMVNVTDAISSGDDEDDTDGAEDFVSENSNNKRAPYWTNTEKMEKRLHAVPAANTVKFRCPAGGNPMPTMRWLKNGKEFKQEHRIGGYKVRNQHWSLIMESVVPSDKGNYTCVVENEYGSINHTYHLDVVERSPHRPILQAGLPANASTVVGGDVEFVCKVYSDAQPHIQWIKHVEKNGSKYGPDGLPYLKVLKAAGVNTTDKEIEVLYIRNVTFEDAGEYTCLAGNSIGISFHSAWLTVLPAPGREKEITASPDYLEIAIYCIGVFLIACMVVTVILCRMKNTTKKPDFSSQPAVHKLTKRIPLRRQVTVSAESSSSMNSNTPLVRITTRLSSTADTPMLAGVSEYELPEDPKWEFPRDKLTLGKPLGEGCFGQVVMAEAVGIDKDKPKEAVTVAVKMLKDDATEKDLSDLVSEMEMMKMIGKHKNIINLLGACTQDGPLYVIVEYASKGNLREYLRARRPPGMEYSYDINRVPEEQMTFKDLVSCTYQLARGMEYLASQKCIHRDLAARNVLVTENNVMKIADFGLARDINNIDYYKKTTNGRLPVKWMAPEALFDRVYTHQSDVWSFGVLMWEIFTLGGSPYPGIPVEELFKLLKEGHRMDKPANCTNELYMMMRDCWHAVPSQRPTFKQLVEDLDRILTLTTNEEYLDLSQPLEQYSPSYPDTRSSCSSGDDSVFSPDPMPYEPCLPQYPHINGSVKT
Data set [4] concerns the target MAP/microtubule affinity-regulating kinase 3 (Homo sapiens) (UniProt P27448). Kind of data set: Selectivity interaction (Kinase panel (DSF assay)) EUB0001558a MARK3. On the technique in general: DSF heats the sample and reads unfolding from a dye or from intrinsic fluorescence.
Data set [5] has as its target Glycogen synthase kinase-3 beta (Homo sapiens, UniProt P49841). The data set is described as follows: Selectivity interaction (Kinase panel (DSF assay)) EUB0001558a GSK3B.
Data set [6] addresses T1, Serine/threonine-protein kinase TAO1 (Homo sapiens) (UniProt Q7L7X3).
T1 sequence (whole entry): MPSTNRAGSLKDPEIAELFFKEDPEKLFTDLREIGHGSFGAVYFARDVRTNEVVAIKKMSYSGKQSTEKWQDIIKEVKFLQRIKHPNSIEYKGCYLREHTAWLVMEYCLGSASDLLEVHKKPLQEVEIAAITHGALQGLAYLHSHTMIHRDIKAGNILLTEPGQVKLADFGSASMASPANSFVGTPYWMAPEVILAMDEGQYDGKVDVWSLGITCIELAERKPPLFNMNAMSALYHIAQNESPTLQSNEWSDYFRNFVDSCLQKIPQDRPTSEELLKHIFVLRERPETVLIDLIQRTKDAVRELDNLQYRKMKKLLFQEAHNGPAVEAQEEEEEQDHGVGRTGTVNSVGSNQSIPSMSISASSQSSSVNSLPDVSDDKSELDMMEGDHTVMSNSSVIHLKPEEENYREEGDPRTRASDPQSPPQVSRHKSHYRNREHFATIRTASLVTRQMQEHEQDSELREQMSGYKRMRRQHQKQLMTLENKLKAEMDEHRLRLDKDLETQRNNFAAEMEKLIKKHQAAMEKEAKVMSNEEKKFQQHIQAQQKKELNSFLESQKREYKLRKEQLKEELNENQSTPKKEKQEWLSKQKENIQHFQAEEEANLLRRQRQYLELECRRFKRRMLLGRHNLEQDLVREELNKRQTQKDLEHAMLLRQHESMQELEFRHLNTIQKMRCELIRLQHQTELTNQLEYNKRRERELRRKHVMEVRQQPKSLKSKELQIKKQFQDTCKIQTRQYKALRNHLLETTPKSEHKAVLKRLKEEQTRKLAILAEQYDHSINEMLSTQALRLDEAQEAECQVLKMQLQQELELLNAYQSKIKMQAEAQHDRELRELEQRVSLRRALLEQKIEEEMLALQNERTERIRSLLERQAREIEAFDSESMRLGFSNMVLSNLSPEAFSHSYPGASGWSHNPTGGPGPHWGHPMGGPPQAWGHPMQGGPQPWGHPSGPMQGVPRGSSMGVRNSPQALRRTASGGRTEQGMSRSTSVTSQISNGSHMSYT
The data set is described as follows: Selectivity interaction (KinomeScan (DiscoverX)) EUB0000229b TAOK1. The following applies: at 10 µM.

Data set [7] addresses T2, Serine/threonine-protein kinase D1 (Homo sapiens) (UniProt Q15139).
T2 sequence (whole entry): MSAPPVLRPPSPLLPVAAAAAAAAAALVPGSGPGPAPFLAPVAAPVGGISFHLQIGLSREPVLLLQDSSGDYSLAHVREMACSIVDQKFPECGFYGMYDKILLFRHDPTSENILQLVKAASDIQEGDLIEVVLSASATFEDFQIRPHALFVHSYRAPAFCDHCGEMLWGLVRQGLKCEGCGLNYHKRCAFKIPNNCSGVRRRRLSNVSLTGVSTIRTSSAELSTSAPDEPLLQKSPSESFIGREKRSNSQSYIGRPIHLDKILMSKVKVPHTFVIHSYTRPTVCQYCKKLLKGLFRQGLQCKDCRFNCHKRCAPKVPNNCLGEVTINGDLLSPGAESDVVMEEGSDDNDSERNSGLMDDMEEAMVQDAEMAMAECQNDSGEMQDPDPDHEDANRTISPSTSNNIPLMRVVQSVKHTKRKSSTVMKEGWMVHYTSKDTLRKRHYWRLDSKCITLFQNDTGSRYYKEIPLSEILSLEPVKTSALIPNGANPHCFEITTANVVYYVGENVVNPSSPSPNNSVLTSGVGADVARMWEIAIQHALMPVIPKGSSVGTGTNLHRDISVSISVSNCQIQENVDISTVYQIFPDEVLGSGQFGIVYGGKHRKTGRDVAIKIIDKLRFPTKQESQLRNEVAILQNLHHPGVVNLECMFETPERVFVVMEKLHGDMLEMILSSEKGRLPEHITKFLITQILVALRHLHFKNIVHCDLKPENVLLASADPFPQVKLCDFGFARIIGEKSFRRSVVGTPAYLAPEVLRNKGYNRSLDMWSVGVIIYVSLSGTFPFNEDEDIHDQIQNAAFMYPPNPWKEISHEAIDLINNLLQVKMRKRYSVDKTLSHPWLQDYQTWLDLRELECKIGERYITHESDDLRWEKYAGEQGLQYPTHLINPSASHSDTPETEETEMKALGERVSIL
The data set is described as follows: Selectivity interaction (KinomeScan (DiscoverX)) EUB0000229b PRKD1. The following applies: at 10 µM.

A further data set deals with OATP1B1 (SLCO1B1) (Homo sapiens, UniProt Q9Y6L6). The data set is described as follows: Selectivity interaction (Panel of kinases, GPCRs, ion channels and transporters (enzymatic assay)) EUB0000266bCl SLCO1B1. Conditions: not told.
Sequence of OATP1B1 (SLCO1B1) (Q9Y6L6 whole entry, canonical isoform): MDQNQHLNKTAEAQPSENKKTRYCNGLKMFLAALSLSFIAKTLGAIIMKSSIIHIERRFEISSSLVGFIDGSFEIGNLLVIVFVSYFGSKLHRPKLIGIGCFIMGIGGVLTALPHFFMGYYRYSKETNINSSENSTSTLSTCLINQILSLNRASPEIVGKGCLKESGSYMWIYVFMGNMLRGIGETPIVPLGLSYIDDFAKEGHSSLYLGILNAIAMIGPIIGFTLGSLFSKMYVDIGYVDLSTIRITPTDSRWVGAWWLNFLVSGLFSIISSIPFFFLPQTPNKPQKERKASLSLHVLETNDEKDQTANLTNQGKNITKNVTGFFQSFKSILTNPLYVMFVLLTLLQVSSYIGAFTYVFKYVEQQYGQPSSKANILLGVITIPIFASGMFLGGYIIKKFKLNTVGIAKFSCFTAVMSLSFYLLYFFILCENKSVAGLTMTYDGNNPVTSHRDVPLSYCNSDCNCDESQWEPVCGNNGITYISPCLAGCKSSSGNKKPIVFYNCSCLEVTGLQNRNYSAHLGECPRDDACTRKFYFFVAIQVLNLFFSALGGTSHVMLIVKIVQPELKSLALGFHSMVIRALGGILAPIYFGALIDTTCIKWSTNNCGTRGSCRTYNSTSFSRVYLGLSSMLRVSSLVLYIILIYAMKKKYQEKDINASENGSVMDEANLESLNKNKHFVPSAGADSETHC
For data set [8], the target named is Phosphatidylinositol 4,5-bisphosphate 3-kinase catalytic subunit gamma isoform (Homo sapiens) (UniProt P48736). The data set is described as follows: Selectivity interaction (KinomeScan (DiscoverX)) EUB0000618a PIK3CG. The following applies: at 10 µM.
Sequence of Phosphatidylinositol 4,5-bisphosphate 3-kinase catalytic subunit gamma isoform (Homo sapiens) (P48736 whole entry, looked up, canonical isoform): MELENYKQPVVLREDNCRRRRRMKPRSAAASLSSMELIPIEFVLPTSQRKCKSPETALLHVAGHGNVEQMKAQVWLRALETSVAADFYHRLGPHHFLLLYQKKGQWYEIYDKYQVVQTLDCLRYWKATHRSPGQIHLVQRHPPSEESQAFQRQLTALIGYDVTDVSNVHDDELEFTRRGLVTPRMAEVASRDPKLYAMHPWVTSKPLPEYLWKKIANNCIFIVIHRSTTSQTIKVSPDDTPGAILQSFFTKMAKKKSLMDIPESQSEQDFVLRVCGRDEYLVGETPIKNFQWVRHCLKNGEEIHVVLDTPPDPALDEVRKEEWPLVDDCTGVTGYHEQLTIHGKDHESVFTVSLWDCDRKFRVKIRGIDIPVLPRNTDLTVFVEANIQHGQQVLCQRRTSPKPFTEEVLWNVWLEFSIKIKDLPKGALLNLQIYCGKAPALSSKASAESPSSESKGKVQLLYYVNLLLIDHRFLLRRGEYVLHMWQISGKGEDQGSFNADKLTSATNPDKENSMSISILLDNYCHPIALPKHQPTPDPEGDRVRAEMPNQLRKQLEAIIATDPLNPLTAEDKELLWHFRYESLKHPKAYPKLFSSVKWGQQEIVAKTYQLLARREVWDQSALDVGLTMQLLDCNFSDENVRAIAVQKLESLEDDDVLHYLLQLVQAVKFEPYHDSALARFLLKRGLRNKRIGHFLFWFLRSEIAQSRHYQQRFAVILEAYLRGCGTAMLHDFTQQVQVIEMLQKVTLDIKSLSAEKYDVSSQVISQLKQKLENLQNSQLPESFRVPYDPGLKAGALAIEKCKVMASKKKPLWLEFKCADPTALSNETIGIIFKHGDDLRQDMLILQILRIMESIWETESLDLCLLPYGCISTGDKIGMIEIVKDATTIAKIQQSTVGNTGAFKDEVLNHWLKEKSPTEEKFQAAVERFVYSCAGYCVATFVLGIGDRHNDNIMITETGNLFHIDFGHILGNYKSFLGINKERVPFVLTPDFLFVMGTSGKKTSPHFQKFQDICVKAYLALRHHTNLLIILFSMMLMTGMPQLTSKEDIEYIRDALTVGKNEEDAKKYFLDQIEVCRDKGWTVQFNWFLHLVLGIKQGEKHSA
Data set [9] has as its target Serine/threonine-protein kinase tousled-like 2 (Homo sapiens) (UniProt Q86UE8). The data set is described as follows: Selectivity interaction (KinomeScan (DiscoverX)) EUB0000595a TLK2. Conditions: at 10 µM.
In data set [10] the target is Casein kinase I isoform epsilon (Homo sapiens, UniProt P49674). Conditions: at 10 µM.
Sequence of Casein kinase I isoform epsilon (P49674 whole entry, looked up, canonical isoform): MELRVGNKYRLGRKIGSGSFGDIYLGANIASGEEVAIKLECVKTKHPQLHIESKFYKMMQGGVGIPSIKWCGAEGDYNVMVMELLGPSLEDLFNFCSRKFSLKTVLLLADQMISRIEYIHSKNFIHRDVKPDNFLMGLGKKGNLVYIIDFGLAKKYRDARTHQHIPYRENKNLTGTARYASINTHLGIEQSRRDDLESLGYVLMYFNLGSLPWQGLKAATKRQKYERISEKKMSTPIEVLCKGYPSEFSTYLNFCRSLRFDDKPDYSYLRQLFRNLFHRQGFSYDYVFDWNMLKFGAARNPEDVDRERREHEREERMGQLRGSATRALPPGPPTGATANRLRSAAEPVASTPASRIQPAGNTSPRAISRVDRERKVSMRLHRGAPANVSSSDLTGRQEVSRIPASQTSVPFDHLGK

Sequence of Glycogen synthase kinase-3 beta (P49841 whole entry, looked up): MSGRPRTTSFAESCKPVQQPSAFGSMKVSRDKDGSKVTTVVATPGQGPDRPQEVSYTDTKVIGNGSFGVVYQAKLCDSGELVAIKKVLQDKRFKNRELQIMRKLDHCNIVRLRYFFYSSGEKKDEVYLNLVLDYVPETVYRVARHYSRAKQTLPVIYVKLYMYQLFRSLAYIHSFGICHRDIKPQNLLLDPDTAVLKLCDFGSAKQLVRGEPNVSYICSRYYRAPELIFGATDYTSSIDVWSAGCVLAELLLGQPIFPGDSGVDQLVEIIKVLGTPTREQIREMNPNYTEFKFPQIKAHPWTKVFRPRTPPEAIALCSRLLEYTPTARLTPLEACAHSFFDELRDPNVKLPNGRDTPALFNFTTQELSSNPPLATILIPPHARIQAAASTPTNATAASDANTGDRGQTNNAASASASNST
Sequence of MAP/microtubule affinity-regulating kinase 3 (Homo sapiens) (P27448 whole entry, looked up): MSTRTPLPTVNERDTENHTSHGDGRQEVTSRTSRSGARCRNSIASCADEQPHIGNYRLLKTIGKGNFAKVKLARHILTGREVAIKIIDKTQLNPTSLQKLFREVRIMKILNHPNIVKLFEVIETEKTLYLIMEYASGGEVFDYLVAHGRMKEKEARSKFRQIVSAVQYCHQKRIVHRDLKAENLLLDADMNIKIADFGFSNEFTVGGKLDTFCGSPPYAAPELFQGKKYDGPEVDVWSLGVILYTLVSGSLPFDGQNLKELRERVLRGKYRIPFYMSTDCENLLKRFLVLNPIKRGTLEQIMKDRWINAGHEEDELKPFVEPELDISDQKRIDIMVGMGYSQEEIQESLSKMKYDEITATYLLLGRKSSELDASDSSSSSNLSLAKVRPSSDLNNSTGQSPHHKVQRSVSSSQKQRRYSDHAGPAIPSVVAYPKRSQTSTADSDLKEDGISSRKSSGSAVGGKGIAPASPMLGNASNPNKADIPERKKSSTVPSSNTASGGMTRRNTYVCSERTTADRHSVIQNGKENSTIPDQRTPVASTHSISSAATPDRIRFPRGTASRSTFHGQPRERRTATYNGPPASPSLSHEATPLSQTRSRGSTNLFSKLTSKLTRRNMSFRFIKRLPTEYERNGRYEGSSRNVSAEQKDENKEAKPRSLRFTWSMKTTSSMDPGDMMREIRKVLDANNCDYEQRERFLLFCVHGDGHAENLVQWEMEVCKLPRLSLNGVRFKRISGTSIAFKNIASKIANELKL
Sequence of Tyrosine-protein kinase receptor UFO (Homo sapiens) (P30530 whole entry): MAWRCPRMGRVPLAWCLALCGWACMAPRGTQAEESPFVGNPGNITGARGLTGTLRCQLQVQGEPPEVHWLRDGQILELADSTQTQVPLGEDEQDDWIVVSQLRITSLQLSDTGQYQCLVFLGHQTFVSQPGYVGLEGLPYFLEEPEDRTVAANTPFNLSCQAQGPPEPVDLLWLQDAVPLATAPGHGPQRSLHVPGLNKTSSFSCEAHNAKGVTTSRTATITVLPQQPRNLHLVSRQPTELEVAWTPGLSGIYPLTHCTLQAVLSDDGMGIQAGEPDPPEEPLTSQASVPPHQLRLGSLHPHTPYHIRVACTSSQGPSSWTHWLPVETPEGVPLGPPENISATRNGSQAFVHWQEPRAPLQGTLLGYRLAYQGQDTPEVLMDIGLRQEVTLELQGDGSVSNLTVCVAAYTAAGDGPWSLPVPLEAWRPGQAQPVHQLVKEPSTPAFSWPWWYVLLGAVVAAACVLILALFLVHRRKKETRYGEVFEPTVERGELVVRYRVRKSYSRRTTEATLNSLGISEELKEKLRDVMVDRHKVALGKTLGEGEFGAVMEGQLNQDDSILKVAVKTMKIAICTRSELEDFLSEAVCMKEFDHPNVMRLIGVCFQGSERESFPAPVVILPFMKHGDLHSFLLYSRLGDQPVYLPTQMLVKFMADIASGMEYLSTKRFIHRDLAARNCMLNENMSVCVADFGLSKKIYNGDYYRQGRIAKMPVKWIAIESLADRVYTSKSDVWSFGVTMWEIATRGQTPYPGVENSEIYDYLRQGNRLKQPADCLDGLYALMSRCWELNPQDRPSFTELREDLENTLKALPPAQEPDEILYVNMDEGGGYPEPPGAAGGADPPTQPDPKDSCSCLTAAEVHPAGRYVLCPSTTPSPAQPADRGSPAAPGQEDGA

In the case of `Cn1cc(-n2cnc3c(NCc4nc5cc(Cl)c(Cl)cc5[nH]4)nc(N4CCOCC4)nc32)cn1`, the % of control in data set [1] turned out to be 2.06%. Compound `CN(C)C/C=C/C(=O)Nc1ccc(C(=O)N2CCCC(Nc3ncc(Cl)c(-c4c[nH]c5ccccc45)n3)C2)cc1` (stereo unspecified) gave a % of control in data set [2] of 10%. The compound `CNC(=O)Nc1ccc(-c2nc(N3CC4CCC(C3)O4)c3cnn(C4CCC5(CC4)OCCO5)c3n2)cc1` gave a % of inhibition in [3] of 4%. As to `CC(C)(O)[C@H](F)CN1Cc2cc(NC(=O)c3cnn4cccnc34)c(N3CCOCC3)cc2C1=O`, the results for the dTM in data set [4] and in [5] were 1.9 K and 0.9 K, respectively. Take `COc1cc(N(C)c2ccnc3ccc(C(F)(F)F)cc23)cc(OC)c1OC`: the % binding is 65% in data set [6] and 100% in data set [7].

`CCn1c(-c2nc3cc(C(=O)N4CCCC(N)C4)ccc3n2C)cc2ccccc21` (stereo unspecified) gave an XC50 on OATP1B1 (SLCO1B1) above 50.1 µM.

On to `O[C@H]1CC[C@H](Nc2ncc3nc(Nc4c(F)cc(F)cc4F)n([C@H]4CCOC4)c3n2)CC1`, for which, in data set [8], the % of control stood at 100%. `COCC(=O)NC/C=C/c1ccc2ncnc(Nc3ccc(Oc4ccc(C)nc4)c(C)c3)c2c1` [CP-724714]: the % of control in data set [9] and in [10] was 100% throughout.

For the origin of these results see ChEMBL document CHEMBL5465560, “Selectivity Literature for EUbOPEN Chemogenomic Library” (2024).
